Key:
TdT [1] = target: T1, TdT (Bos taurus, UniProt P06526); assay: TdT incorporation assay (extension of 21-nt oligonucleotide, denaturing TBE-Urea gel); type: biochemical; details: for yield of 22-nt oligo (+1 product) / yield of 23-nt oligo (+2 product) / yield of 24-nt oligo (+3 product): 40 μM nucleotide
T1 construct: purchased New England Biolab (Ipswich, MA)
Method: DNA oligonucleotide sequence used for primer extension assays is: ATTCAGGACGAGCCTCAGACC (SEQ ID NO: 1)
[…] The solution was then heated at 95° C. for 5 minutes to inactivate TdT. UV cleavage of the photolabile group was done using an 8 W UV lamp at 365 nm for 10 minutes.
(§1) Initrogen (Carlsbad, California) Novex™ TBE-Urea gel (15%) was pre-washed with 1×TBE running buffer to remove excess urea. Oligonucleotide samples (5 μL) were mixed with Novex™ TBE-Urea Sample Buffer (2×, 5 μL). The mixture was then heated at 95° C. for 5 minutes and loaded to the gel. Gels were run in a 1×TBE running buffer at up to 240 V until the bromophenol blue reached the bottom of the gel. The gel was then visualized using Gel Doc XR+ and analyzed using the gel analysis tool in the Bio-Rad (Hercules, California) Image Lab software.

TdT [2] = details: cited from earlier work
TdT [3] = target: T1, TdT; assay: 2 cycle incorporation and deprotection; type: biochemical; details: nucleotide 20 μM, 7 minutes at 37° C., 8 W UV lamp at 365 nm for 10 minutes per cycle (FIG. 5)
Method: A 6-fluorescein-tagged 21-nt oligonucleotide (200 nM), 1× TdT buffer (NEB), TdT (2 U μL^−1) CoCl2 (NEB, 0.25 mM) and nucleotide (20 μM) in 500 μL solution was incubated at 37° C. for 7 minutes and quenched with EDTA (50 μL, 500 mM). The solution was concentrated using MilliporeSigma (Burlington, Massachusetts) Amicon Ultra-0.5 mL Centrifugal Filters (3 kDa) to a final volume of 30 μL. Sodium Acetate solution (10 μL, 3M, pH 5.0) was added to the concentrated solution and further purified using Zymo (Irvine, California) DNA Clean & Concentrator. UV cleavage of the photolabile group was done using an 8 W UV lamp at 365 nm for 10 minutes. The steps were then repeated to give the second incorporation.
as §1

[4] = 200 nM 21-nt oligonucleotide, 1 U μL^−1 TdT, 15 minutes

T1 sequence (P06526 whole entry): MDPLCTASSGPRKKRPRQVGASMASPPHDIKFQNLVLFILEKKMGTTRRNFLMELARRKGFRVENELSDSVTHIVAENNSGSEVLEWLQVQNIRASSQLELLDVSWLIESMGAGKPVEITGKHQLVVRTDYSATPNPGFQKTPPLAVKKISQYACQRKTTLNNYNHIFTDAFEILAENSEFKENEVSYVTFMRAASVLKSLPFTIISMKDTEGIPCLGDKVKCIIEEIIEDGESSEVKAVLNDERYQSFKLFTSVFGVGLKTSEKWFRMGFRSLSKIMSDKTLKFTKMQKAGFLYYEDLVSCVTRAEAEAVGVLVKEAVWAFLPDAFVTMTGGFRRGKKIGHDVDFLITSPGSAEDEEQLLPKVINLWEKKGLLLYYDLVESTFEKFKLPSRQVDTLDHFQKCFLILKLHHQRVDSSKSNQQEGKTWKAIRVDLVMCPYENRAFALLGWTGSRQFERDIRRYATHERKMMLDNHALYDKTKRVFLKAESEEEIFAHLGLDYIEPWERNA

Compound: Cc1cn([C@H]2C[C@H](OCN=[N+]=[N-])[C@@H](COP(=O)(O)OP(=O)(O)OP(=O)(O)O)O2)c(=O)[nH]c1=O [3′-O-azidomethyl-dTTP, reference compound]
- incorporation by TdT (TdT [1]; nucleotide 1 μM to 32 μM, 10 minutes of incubation at 37° C. (FIG. 4)): unable to incorporate

Compound: CCCCSCCc1cn([C@H]2C[C@H](O)[C@@H](COP(=O)(O)OP(=O)(O)OP(=O)(O)O)O2)c2ncnc(N)c12 [7-[2-(butylsulfanyl)ethyl]-2′-deoxy-7-deazaadenosine 5′-O-triphosphate]
- number of incorporation events by TdT (TdT [2]): only a single incorporation event

Compound: Nc1ncnc2c1c(CCSc1ccccc1)cn2[C@H]1C[C@H](O)[C@@H](COP(=O)(O)OP(=O)(O)OP(=O)(O)O)O1 [7-[2-(phenylsulfanyl)ethyl]-2′-deoxy-7-deazaadenosine 5′-O-triphosphate]
- number of incorporation events by TdT (TdT [2]): only a single incorporation event

Compound: NCC#Cc1cn([C@H]2C[C@H](O)[C@@H](COP(=O)(O)OP(=O)(O)OP(=O)(O)O)O2)c(=O)[nH]c1=O [propargylamino-dUTP, reference compound]
- incorporation by TdT compared to that of dTTP (TdT [1]; Lanes 6-7, FIG. 2A): significantly slower

Compound: N3-PEG4-dUTP [Compound 1]
- yield of 22-nt oligo (+1 product) (TdT [1]; [4]): 55%
- yield of 23-nt oligo (+2 product) (TdT [1]; [4]): 41%
- yield of 24-nt oligo (+3 product) (TdT [1]; [4]): 4%
- yield of 22-nt oligo (+1 product) (TdT [1]; 30 minutes of incubation): 35%
- yield of 23-nt oligo (+2 product) (TdT [1]; 30 minutes of incubation): 56%
- yield of 24-nt oligo (+3 product) (TdT [1]; 30 minutes of incubation): 9%

Compound: N3-PEG8-dUTP [Compound 2]
- yield of 22-nt oligo (+1 product) (TdT [1]; [4]): 88%
- yield of 23-nt oligo (+2 product) (TdT [1]; [4]): 12%
- yield of 24-nt oligo (+3 product) (TdT [1]; [4]): not observed
- yield of 23-nt oligo (+2 product) (TdT [1]; 30 minutes of incubation): 22%
- yield of 24-nt oligo (+3 product) (TdT [1]; 30 minutes of incubation): not observed

Compound: N3-PEG12-dUTP [Compound 3]
- yield of 22-nt oligo (+1 product) (TdT [1]; [4]): 94%
- yield of 23-nt oligo (+2 product) (TdT [1]; 30 minutes of incubation): 13%
- yield of 24-nt oligo (+3 product) (TdT [1]; 30 minutes of incubation): not observed

Compound: N3-PEG23-nitrobenzyl-dUTP [Compound 5]
- incorporation by TdT (TdT [1]; nucleotide 20 μM (Lane 10, FIG. 4)): could be incorporated
- reaction time in which quantitative incorporation was achieved (TdT [1]; optimized conditions, incorporation time varied from 5 to 9 minutes (FIG. 3)): ≤ 7 min
- product after 2 cycles of incorporation and photocleavage of PEG moiety (TdT [3]): the desired 23-nt oligo

Compound: N3-PEG24-dUTP [Compound 4]
- yield of 22-nt oligo (+1 product) (TdT [1]; [4]): quantitative
- yield of 22-nt oligo (+1 product) (TdT [1]; 30 minutes of incubation): 98%
- yield of 23-nt oligo (+2 product) (TdT [1]; 30 minutes of incubation): 2%
- yield of 24-nt oligo (+3 product) (TdT [1]; 30 minutes of incubation): not observed

— US11993801B2, “Base-modified nucleotides as substrates for TdT-based enzymatic nucleic acid synthesis” (Illumina Singapore Pte. Ltd., priority 2020, dated 2024)
